# ChEMBL document CHEMBL5143685, “Valorisation of the diterpene podocarpic acid - Antibiotic and antibiotic enhancing activities of polyamine conjugates” (Bioorg Med Chem, 2022)
# How the values were obtained:
# Candida albicans = experiment: Antifungal activity against Candida albicans ATCC 90028 assessed as fungal growth inhibition incubated for 36 hrs by resazurin dye based analysis; assay type: functional
# [1] = Cytotoxicity against HEK293 cells assessed as cell growth inhibition measured after 20 hrs by resazurin dye based assay; assay type: toxicity; settings: human
# Pseudomonas aeruginosa [2] = experiment: Antibacterial activity against Pseudomonas aeruginosa ATCC 27853 assessed as inhibition of bacterial growth measured after 18 hrs by resazurin dye based analysis; assay type: functional
# Escherichia coli [3] = experiment: Antibiotic adjuvant activity against Escherichia coli ATCC 25922 assessed as erythromycin MIC measured after 18 hrs in presence of erythromycin; assay type: functional
# Escherichia coli [4] = experiment: Antibacterial activity against Escherichia coli ATCC 25922 assessed as inhibition of bacterial growth measured after 18 hrs by resazurin dye based analysis; assay type: functional
# Staphylococcus aureus = experiment: Antibacterial activity against methicillin-resistant Staphylococcus aureus ATCC 43300 assessed as inhibition of bacterial growth measured after 18 hrs by resazurin dye based analysis; assay type: functional
# Cryptococcus neoformans = experiment: Antifungal activity against Cryptococcus neoformans ATCC 208821 assessed as fungal growth inhibition incubated for 36 hrs by resazurin dye based analysis; assay type: functional
# Klebsiella pneumoniae = experiment: Antibacterial activity against Klebsiella pneumoniae ATCC 700603 assessed as inhibition of bacterial growth measured after 18 hrs by resazurin dye based analysis; assay type: functional
# [5] = Selectivity index, ratio of IC50 for HEK293 to MIC for methicillin-resistant Staphylococcus aureus ATCC 43300; assay type: toxicity; settings: human, HEK293 cells; read-out: Selectivity Index
# Acinetobacter baumannii = experiment: Antibacterial activity against Acinetobacter baumannii ATCC 19606 assessed as inhibition of bacterial growth measured after 18 hrs by resazurin dye based analysis; assay type: functional
# Saccharomyces cerevisiae [6] = experiment: Antifungal activity against Saccharomyces cerevisiae YJM789 assessed as fungal growth inhibition incubated for 24 hrs by plate reader method; assay type: functional, organism-based; settings: YJM789, 24 h
# Saccharomyces cerevisiae [7] = experiment: Antifungal activity against Saccharomyces cerevisiae BY4743 assessed as fungal growth inhibition incubated for 24 hrs by plate reader method; assay type: functional, organism-based; settings: BY4743, 24 h
# Saccharomyces cerevisiae [8] = experiment: Antifungal activity against Saccharomyces cerevisiae PA3-10-3 variant assessed as fungal growth inhibition incubated for 24 hrs by plate reader method; assay type: functional, organism-based
# Pseudomonas aeruginosa [9] = experiment: Antibiotic adjuvant activity against Pseudomonas aeruginosa ATCC 27853 assessed as doxycycline MIC measured after 18 hrs in presence of doxycycline; assay type: functional
Structure (SMILES),MIC (Candida albicans) [µM],IC50 at 20 h [1] [µM],MIC (Pseudomonas aeruginosa [2]) [µM],MIC (Escherichia coli [3]) [µM],MIC (Escherichia coli [4]) [µM],MIC (Staphylococcus aureus) [µM],MIC (Cryptococcus neoformans) [µM],MIC (Klebsiella pneumoniae) [µM],selectivity ratio [5],MIC (Acinetobacter baumannii) [µM],IC50 (Saccharomyces cerevisiae [6]) [µM],IC50 (Saccharomyces cerevisiae [7]) [µM],IC50 (Saccharomyces cerevisiae [8]) [µM],MIC (Pseudomonas aeruginosa [9]) [µM]
C[C@]1(C(=O)NCCCNCCCCNCCCNC(=O)[C@@]2(C)CCC[C@]3(C)c4cc(O)ccc4CC[C@@H]23)CCC[C@]2(C)c3cc(O)ccc3CC[C@@H]12.O=C(O)C(F)(F)F.O=C(O)C(F)(F)F,> 33.9,> 33.9,> 33.9,26.5,> 33.9,≤ 0.26,17,> 33.9,> 130,> 33.9,,,,
C[C@]1(C(=O)NCCCNCCCCCCN)CCC[C@]2(C)c3cc(OC(=O)NCCCNCCCCCCN)ccc3CC[C@@H]12.O=C(O)C(F)(F)F.O=C(O)C(F)(F)F.O=C(O)C(F)(F)F.O=C(O)C(F)(F)F,> 29.5,> 29.5,> 29.5,50,> 29.5,> 29.5,> 29.5,> 29.5,,> 29.5,,,,
C[C@]1(C(=O)NCCCNCCCCCCCCCCCCN)CCC[C@]2(C)c3cc(O)ccc3CC[C@@H]12.O=C(O)C(F)(F)F.O=C(O)C(F)(F)F,43.1,26.2,> 43.1,,43.1,5.4,43.1,> 43.1,4.9,43.1,,,,
C[C@]1(C(=O)O)CCC[C@]2(C)c3cc(OC(=O)CCCNCCCCCCCCCCNCCCNC(=O)Oc4ccc5c(c4)[C@@]4(C)CCC[C@](C)(C(=O)O)[C@@H]4CC5)ccc3CC[C@@H]12.O=C(O)C(F)(F)F.O=C(O)C(F)(F)F,> 28.7,> 28.7,> 28.7,,> 28.7,> 28.7,7.17,> 28.7,,> 28.7,14.3,3.59,> 25,
C[C@@]12CCC[C@](C)(C(=O)O)[C@H]1CCc1ccc(OC(=O)CCCNCCCCCCNCCCNC(=O)Oc3ccc4c(c3)[C@@]3(C)CCC[C@](C)(C(=O)O)[C@@H]3CC4)cc12.O=C(O)C(F)(F)F.O=C(O)C(F)(F)F,30.2,> 30.2,> 30.2,,> 30.2,30.2,30.2,> 30.2,,> 30.2,14.3,3.59,,
C[C@]1(C(=O)NCCCNCCCCCCCCCCCCN)CCC[C@]2(C)c3cc(OC(=O)NCCCNCCCCCCCCCCCCN)ccc3CC[C@@H]12.O=C(O)C(F)(F)F.O=C(O)C(F)(F)F.O=C(O)C(F)(F)F.O=C(O)C(F)(F)F,25.5,0.33,> 25.5,,≤ 0.2,≤ 0.2,> 25.5,12.8,,6.38,,,,50
C[C@]1(C(=O)NCCCNCCCCCCCN)CCC[C@]2(C)c3cc(OC(=O)NCCCNCCCCCCCN)ccc3CC[C@@H]12.O=C(O)C(F)(F)F.O=C(O)C(F)(F)F.O=C(O)C(F)(F)F.O=C(O)C(F)(F)F,> 29.7,> 28.7,> 29.7,50,> 29.7,> 28.7,> 29.7,> 29.7,,> 29.7,,,,
C[C@]1(C(=O)NCCCNCCCCCCCCN)CCC[C@]2(C)c3cc(OC(=O)NCCCNCCCCCCCCN)ccc3CC[C@@H]12.O=C(O)C(F)(F)F.O=C(O)C(F)(F)F.O=C(O)C(F)(F)F.O=C(O)C(F)(F)F,> 28,> 28,> 28,,> 28,> 28,> 28,> 28,,> 28,,,,
COC(=O)[C@@]1(C)CCC[C@]2(C)c3cc(OC(=O)CCCNCCCCNCCCNC(=O)Oc4ccc5c(c4)[C@@]4(C)CCC[C@](C)(C(=O)OC)[C@@H]4CC5)ccc3CC[C@@H]12.O=C(O)C(F)(F)F.O=C(O)C(F)(F)F,15.1,16.4,> 30.2,,30.2,1.89,1.89,> 30.2,,30.2,,,,
CCCCCNC(=O)[C@@]1(C)CCC[C@]2(C)c3cc(OC(=O)CCCNCCCCCCCCCCCCNCCCNC(=O)Oc4ccc5c(c4)[C@@]4(C)CCC[C@](C)(C(=O)NCCCCC)[C@@H]4CC5)ccc3CC[C@@H]12.O=C(O)C(F)(F)F.O=C(O)C(F)(F)F,≤ 0.19,> 25,> 25,,> 25,1.56,≤ 0.19,> 25,,> 25,,,,
C[C@]1(C(=O)NCCCNCCCCCCCN)CCC[C@]2(C)c3cc(O)ccc3CC[C@@H]12.O=C(O)C(F)(F)F.O=C(O)C(F)(F)F,> 47.6,> 47.6,> 47.6,,> 47.6,> 47.6,> 47.6,> 47.6,,> 47.6,,,,
C[C@]1(C(=O)NCCCNCCCCCCCCCCN)CCC[C@]2(C)c3cc(O)ccc3CC[C@@H]12.O=C(O)C(F)(F)F.O=C(O)C(F)(F)F,> 44.8,> 44.8,> 44.8,,> 44.8,> 44.8,> 44.8,> 44.8,,> 44.8,,,,
C[C@]1(C(=O)O)CCC[C@]2(C)c3cc(OC(=O)NCCCNCCCCCCN)ccc3CC[C@@H]12.O=C(O)C(F)(F)F.O=C(O)C(F)(F)F,> 45.6,> 45.6,> 45.6,,> 45.6,> 45.6,> 45.6,> 45.6,,> 45.6,,,,
C[C@]1(C(=O)NCCCNCCCCCCCCNCCCNC(=O)[C@@]2(C)CCC[C@]3(C)c4cc(O)ccc4CC[C@@H]23)CCC[C@]2(C)c3cc(O)ccc3CC[C@@H]12.O=C(O)C(F)(F)F.O=C(O)C(F)(F)F,32,18.1,> 32,,32,8,32,> 32,,32,,,,
C[C@]1(C(=O)O)CCC[C@]2(C)c3cc(OC(=O)NCCCNCCCCCCCCN)ccc3CC[C@@H]12.O=C(O)C(F)(F)F.O=C(O)C(F)(F)F,> 43.8,> 43.8,> 43.8,,> 43.8,> 43.8,> 43.8,> 43.8,,> 43.8,,,,
C[C@]1(C(=O)O)CCC[C@]2(C)c3cc(OC(=O)NCCCNCCCCCCCN)ccc3CC[C@@H]12.O=C(O)C(F)(F)F.O=C(O)C(F)(F)F,> 44.7,> 44.7,> 44.7,,> 44.7,> 44.7,> 44.7,> 44.7,,> 44.7,,,,
C[C@]1(C(=O)NCCCNCCCCCCN)CCC[C@]2(C)c3cc(O)ccc3CC[C@@H]12.O=C(O)C(F)(F)F.O=C(O)C(F)(F)F,> 48.6,> 48.6,> 48.6,,> 48.6,> 48.6,> 48.6,> 48.6,,> 48.6,,,,
C[C@]1(C(=O)NCCCNCCCCCCCCCCCCNCCCNC(=O)[C@@]2(C)CCC[C@]3(C)c4cc(O)ccc4CC[C@@H]23)CCC[C@]2(C)c3cc(O)ccc3CC[C@@H]12.O=C(O)C(F)(F)F.O=C(O)C(F)(F)F,7.58,> 30.3,> 30.3,,> 30.3,≤ 0.24,≤ 0.24,> 30.3,,> 30.3,,,,
C[C@]1(C(=O)NCCCNCCCCN)CCC[C@]2(C)c3cc(OC(=O)NCCCNCCCCN)ccc3CC[C@@H]12.O=C(O)C(F)(F)F.O=C(O)C(F)(F)F.O=C(O)C(F)(F)F.O=C(O)C(F)(F)F,> 31.1,> 31.1,> 31.1,25,> 31.1,> 31.1,> 31.1,> 31.1,,> 31.1,,,,25
C[C@]1(C(=O)O)CCC[C@]2(C)c3cc(OC(=O)CCCNCCCCCCCNCCCNC(=O)Oc4ccc5c(c4)[C@@]4(C)CCC[C@](C)(C(=O)O)[C@@H]4CC5)ccc3CC[C@@H]12.O=C(O)C(F)(F)F.O=C(O)C(F)(F)F,29.8,> 29.8,> 29.8,,> 29.8,> 29.8,7.45,> 29.8,,> 29.8,,,,
C[C@]1(C(=O)NCCCNCCCCCCCCCCN)CCC[C@]2(C)c3cc(OC(=O)NCCCNCCCCCCCCCCN)ccc3CC[C@@H]12.O=C(O)C(F)(F)F.O=C(O)C(F)(F)F.O=C(O)C(F)(F)F.O=C(O)C(F)(F)F,> 26.7,20.6,> 26.7,3.12,> 26.7,26.7,> 26.7,> 26.7,,> 26.7,,,,50
CCCCCNC(=O)[C@@]1(C)CCC[C@]2(C)c3cc(OC(=O)CCCNCCCCCCCNCCCNC(=O)Oc4ccc5c(c4)[C@@]4(C)CCC[C@](C)(C(=O)NCCCCC)[C@@H]4CC5)ccc3CC[C@@H]12.O=C(O)C(F)(F)F.O=C(O)C(F)(F)F,≤ 0.21,> 26.4,> 26.4,,> 26.4,≤ 0.21,3.3,> 26.4,,> 26.4,,,,
